Measured values taken from ChEMBL document CHEMBL1201862, “PubChem BioAssay data set” (2004).
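Cultured in 96-well plates, cells were exposed to test compound for 48 hours across five concentrations. GI50: concentration for 50% inhibition of growth.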 Active and inactive are the calls of the source. Rule as the data show it: active = GI50 up to about 1.1 µM and inactive = higher. Where a SMILES comes first, the peptide text is derived from it. [ ]: non-standard residue; d: D form. The star is where a group is joined. Cbz = O=C(OCc1ccccc1)*; Aib = CC(C)(N)C(=O)O

What was measured:
Experiment in all cases: DTP human tumour cell line panel, 48 h
786-0 = tested on: 786-0
Hs-578T = tested on: Hs-578T
NCI-H522 = tested on: NCI-H522
EKVX = tested on: EKVX
CCRF-CEM = tested on: CCRF-CEM
SR = tested on: SR
LOX IMVI = tested on: LOX IMVI
SF-268 = tested on: SF-268
M14 = tested on: M14
SK-MEL-5 = tested on: SK-MEL-5
RPMI-8226 = tested on: RPMI-8226
MDA-MB-231 = tested on: MDA-MB-231
SF-295 = tested on: SF-295
SK-MEL-2 = tested on: SK-MEL-2
SW-620 = tested on: SW-620
SK-OV-3 = tested on: SK-OV-3
ACHN = tested on: ACHN
MDA-N = tested on: MDA-N
K562 = tested on: K562
DMS-114 = tested on: DMS-114

Measured: GI50

O=C(CC(=O)c1ccncc1)c1ccccc1
inactive: 786-0 66.4 µM | Hs-578T > 100 µM | NCI-H522 67.3 µM | EKVX > 64.3 µM | CCRF-CEM 11.9 µM | SR 22.1 µM | LOX IMVI 31.8 µM | SF-268 63.5 µM | M14 78 µM | SK-MEL-5 90.4 µM | RPMI-8226 52.5 µM | MDA-MB-231 > 100 µM | SF-295 > 83.8 µM | SK-MEL-2 > 81.1 µM | SW-620 73.1 µM | SK-OV-3 > 100 µM | ACHN 67.6 µM | MDA-N > 71.1 µM | K562 45.1 µM

COc1ccc(/C=C2\CCCCC2=O)cc1
inactive: 786-0 > 100 µM | EKVX > 100 µM | CCRF-CEM > 100 µM | LOX IMVI > 100 µM | SF-268 > 100 µM | M14 > 100 µM | DMS-114 > 100 µM | SK-MEL-5 > 100 µM | SF-295 > 100 µM | SW-620 > 100 µM | SK-OV-3 > 100 µM | ACHN > 100 µM | K562 > 100 µM

O=c1[nH]c2cc([N+](=O)[O-])ccc2nc1/C(=N/Nc1ccccc1)C(O)c1ccccc1Cl (stereo unspecified)
inactive: 786-0 > 100 µM | NCI-H522 4.68 µM | EKVX 67.3 µM | CCRF-CEM 33.5 µM | LOX IMVI > 100 µM | SF-268 > 100 µM | M14 47.3 µM | DMS-114 6.75 µM | SK-MEL-5 33 µM | RPMI-8226 52.4 µM | SF-295 43.3 µM | SK-MEL-2 > 100 µM | SW-620 41.9 µM | SK-OV-3 > 100 µM | ACHN 17.5 µM | K562 42.5 µM

COc1ccccc1NC(=O)C(CC(C(=O)Nc1ccccc1OC)/C(C)=N/NC(=O)c1ccccc1O)/C(C)=N/NC(=O)c1ccccc1O (stereo unspecified)
inactive: 786-0 > 100 µM | NCI-H522 64.4 µM | EKVX 72.9 µM | CCRF-CEM 33 µM | LOX IMVI > 100 µM | SF-268 > 100 µM | M14 > 100 µM | DMS-114 70.8 µM | SK-MEL-5 47 µM | RPMI-8226 59.8 µM | SF-295 59.7 µM | SK-MEL-2 > 100 µM | SW-620 88.5 µM | SK-OV-3 > 100 µM | ACHN 98.6 µM | K562 > 100 µM

CC(=O)N1CCc2[nH]c3ccccc3c2CC1
inactive: 786-0 > 100 µM | EKVX > 100 µM | CCRF-CEM > 100 µM | LOX IMVI > 100 µM | M14 > 100 µM | DMS-114 > 100 µM | SK-MEL-5 > 100 µM | RPMI-8226 > 100 µM | SF-295 > 100 µM | SK-MEL-2 > 100 µM | SW-620 > 100 µM | SK-OV-3 > 100 µM | ACHN > 100 µM | K562 > 100 µM

O=[N+]([O-])c1cccc(C2=NN(c3ccccc3)C3c4ccccc4OCC23)c1 (stereo unspecified)
inactive: 786-0 > 100 µM | NCI-H522 62.1 µM | EKVX > 100 µM | CCRF-CEM 91 µM | LOX IMVI > 100 µM | SF-268 > 100 µM | DMS-114 > 100 µM | RPMI-8226 > 100 µM | SF-295 > 100 µM | SK-MEL-2 > 100 µM | SW-620 > 100 µM | SK-OV-3 > 100 µM | ACHN > 100 µM | K562 75.3 µM

CC(C)CCNC(=O)c1ccc(CNC(=O)/C=C/c2ccc3c(c2)-c2ccccc2C3)cc1
inactive: 786-0 33.9 µM | Hs-578T 26.9 µM | NCI-H522 22.6 µM | EKVX > 100 µM | CCRF-CEM 38.8 µM | SR 34.9 µM | LOX IMVI 50.6 µM | SF-268 38.7 µM | M14 74.3 µM | SK-MEL-5 36.9 µM | RPMI-8226 44 µM | MDA-MB-231 34.5 µM | SF-295 30.7 µM | SK-MEL-2 > 100 µM | SW-620 44.8 µM | SK-OV-3 57.1 µM | ACHN 57.4 µM | MDA-N 62.8 µM | K562 64.3 µM

Cc1cc(N(CCC#N)CCC#N)ccc1/C=C/C(=O)Nc1cccc(Cl)c1
inactive: 786-0 > 100 µM | NCI-H522 62.7 µM | EKVX > 100 µM | CCRF-CEM 85.7 µM | LOX IMVI 52.2 µM | SF-268 > 100 µM | M14 > 100 µM | DMS-114 > 100 µM | SK-MEL-5 > 100 µM | RPMI-8226 > 100 µM | SF-295 > 100 µM | SK-MEL-2 > 100 µM | SW-620 > 100 µM | SK-OV-3 > 100 µM | ACHN 57.3 µM | K562 32.3 µM

O=C(O)C#CCO
inactive: 786-0 > 100 µM | NCI-H522 > 100 µM | EKVX > 100 µM | CCRF-CEM > 100 µM | LOX IMVI > 100 µM | SF-268 > 100 µM | M14 > 100 µM | DMS-114 > 100 µM | SK-MEL-5 > 100 µM | RPMI-8226 > 100 µM | SF-295 > 100 µM | SK-MEL-2 > 100 µM | SW-620 > 100 µM | SK-OV-3 > 100 µM | ACHN > 100 µM | K562 > 100 µM

CC(=O)CC1(OC(=O)C2C(C=C(C)C)C2(C)C)C(=O)Nc2ccccc21 (stereo unspecified)
inactive: 786-0 > 100 µM | Hs-578T > 100 µM | NCI-H522 64.6 µM | EKVX > 100 µM | CCRF-CEM 55.3 µM | SR > 100 µM | LOX IMVI > 100 µM | SF-268 > 100 µM | M14 > 100 µM | SK-MEL-5 > 100 µM | RPMI-8226 96.6 µM | MDA-MB-231 > 100 µM | SF-295 > 100 µM | SK-MEL-2 > 100 µM | SW-620 > 100 µM | SK-OV-3 > 100 µM | ACHN 78.3 µM | MDA-N > 100 µM | K562 77.3 µM

O=S(O)CCCSSCCCCSSCCCS(=O)O
inactive: 786-0 > 100 µM | NCI-H522 > 100 µM | EKVX 34.4 µM | CCRF-CEM > 100 µM | LOX IMVI > 100 µM | SF-268 > 100 µM | M14 > 100 µM | DMS-114 > 100 µM | SK-MEL-5 > 100 µM | SF-295 > 100 µM | SK-MEL-2 > 100 µM | SW-620 > 100 µM | SK-OV-3 > 100 µM | ACHN > 100 µM | K562 > 100 µM

CC(C)(NC(=O)C(C)(C)NC(=O)OCc1ccccc1)C(=O)O (Cbz-[Aib]-[Aib]-OH)
inactive: 786-0 > 100 µM | Hs-578T > 100 µM | NCI-H522 > 100 µM | EKVX > 100 µM | CCRF-CEM > 100 µM | SR > 100 µM | LOX IMVI > 100 µM | SF-268 > 100 µM | M14 > 100 µM | SK-MEL-5 > 100 µM | RPMI-8226 > 100 µM | MDA-MB-231 > 100 µM | SF-295 > 100 µM | SK-MEL-2 > 100 µM | SW-620 > 100 µM | SK-OV-3 > 100 µM | ACHN > 100 µM | MDA-N > 100 µM | K562 > 100 µM
